In patent US20130123481A1, “MODIFIED NUCLEOSIDES, NUCLEOTIDES, AND NUCLEIC ACIDS, AND USES THEREOF” (MODERNA THERAPEUTICS, priority 2011, published 2013):
Where two headings read alike, the source gives them in different places.

Assays:
wild-type T7 polymerase = wild-type T7 polymerase (Escherichia phage T7, UniProt P00573); assay: In Vitro Transcription with Wild-Type T7 Polymerase (transcription and capping yield); conditions: for IVT (G-CSF), first result / IVT (Luc), first result: Table 48 non-naturally occurring; for IVT (G-CSF), first result / IVT (G-CSF): G-CSF mRNA in vitro transcription; for IVT (G-CSF), first result / IVT (Luc), first result / IVT (G-CSF) / IVT (Luc): Pass/Fail; for IVT (Luc), first result / IVT (Luc): luciferase mRNA in vitro transcription; for IVT (G-CSF) / IVT (Luc): Table 47 naturally occurring; for In vitro transcription Yield: wild-type T7 polymerase; for In vitro transcription Yield / Capping reaction Yield: OD260; for Capping reaction Yield: enzymatic capping
Protocol: The luciferase and G-CSF modified mRNA were also subjected to an enzymatic capping reaction and each modified mRNA capping reaction was evaluated for yield by spectrophometic measurement (OD260) and correct size assessed using bioanalyzer.

HeLa cells [1] = assay: In vitro Screening in HeLa Cells - luciferase (RLU); format: cell-based, human; parameters: key to Protein (Luc; HeLa): the protein production of HeLa is judged by “+,” “+/−” and “−”; the protein production of HeLa is judged by “+,” “+/−” and “−”; the protein production of HeLa is judged by “+,” “+/−” and “−”
Protocol: The 2′Fluoro-modified mRNA were then transfected into HeLa cells to assess protein production in a cell context and the same mRNA were also assessed in a cell-free rabbit reticulocyte system. A control of unmodified luciferase (natural luciferase) was used for both transcription experiments, a control of untreated and mock transfected (Lipofectamine 2000 alone) were also analyzed for the HeLa transfection and a control of no RNA was analyzed for the rabbit reticulysates.
For the HeLa transfection experiments, the day before transfection, 20,000 HeLa cells (ATCC no. CCL-2; Manassas, Va.) were harvested by treatment with Trypsin-EDTA solution (LifeTechnologies, Grand Island, N.Y.) and seeded in a total volume of 100 ul EMEM medium (supplemented with 10% FCS and 1× Glutamax) per well in a 96-well cell culture plate (Corning, Manassas, Va.). The cells were grown at […] in 5% CO2 atmosphere overnight. […] Lipofectamine 2000 (LifeTechnologies, Grand Island, N.Y.) was used as transfection reagent and 0.2 ul were diluted in 10 ul final volume of OPTI-MEM. After […] of incubation at room temperature, both solutions were combined and incubated an additional 15 minute at room temperature. Then the 20 ul combined solution was added to the 100 ul cell culture medium containing the HeLa cells and incubated at room temperature. After 18 to 22 hours of incubation cells expressing luciferase were lysed with 100 ul of Passive Lysis Buffer (Promega, Madison, Wis.) according to manufacturer instructions. Aliquots of the lysates were transferred to white opaque polystyrene 96-well plates (Corning, Manassas, Va.) and combined with 100 ul complete luciferase assay solution (Promega, Madison, Wis.). The lysate volumes were adjusted or diluted until no more than 2 mio relative light units (RLU) per well were detected for the strongest signal producing samples and the RLUs for each chemistry tested are shown in Table 42. The plate reader was a BioTek Synergy H1 (BioTek, Winooski, Vt.). The background signal of the plates without reagent was about 200 relative light units per well.
To evaluate using of 2′fluoro-modified mRNA in combination with other modification a series of mRNA were transcribed using either wild-type T7 polymerase (non-fluoro-containing compounds) or using mutant T7 polymerases (fluyoro-containing compounds) as described in Example 86. All modified mRNA were tested by in vitro transfection in HeLa cells.
After 18 to 22 hours of incubation cells expressing luciferase were lysed with 100 ul of Passive Lysis Buffer (Promega, Madison, Wis.) according to manufacturer instructions. Aliquots of the lysates were transferred to white opaque polystyrene 96-well plates (Corning, Manassas, Va.) and combined with 100 ul complete luciferase assay solution (Promega, Madison, Wis.). The lysate volumes were adjusted or diluted until no more than 2 mio relative light units (RLU) per well were detected for the strongest signal producing samples and the RLUs for each chemistry tested are shown in Table 44. The plate reader was a BioTek Synergy H1 (BioTek, Winooski, Vt.). The background signal of the plates without reagent was about 200 relative light units per well.

[2] = test system: peripheral blood mononuclear cells (PBMC), interferon-alpha (IFN-α); format: cell-based, human; conditions: IFN-alpha, background about 70 pg/ml
Description: (§1) The supernatant was harvested and stored frozen until analyzed by ELISA to determine the G-CSF protein expression, and the induction of the cytokines interferon-alpha (IFN-α) and tumor necrosis factor alpha (TNF-α).

[3] = test system: peripheral blood mononuclear cells (PBMC); assay: In Vitro Screening in PBMC - G-CSF protein expression; format: cell-based, human; conditions: for Protein (G-CSF; PBMC): background about 110 pg/ml; for G-CSF Protein Expression: 500 ng mRNA
Description: as §1

HeLa cells [4] = assay: G-CSF expression in HeLa cells (ELISA); format: cell-based, human; parameters: key to Protein (G-CSF; HeLa): the protein production of HeLa is judged by “+,” “+/−” and “−”; the protein production of HeLa is judged by “+,” “+/−” and “−”; the protein production of HeLa is judged by “+,” “+/−” and “−”; conditions: for G-CSF protein (pg/ml) HeLa cells: fully modified G-CSF mRNA transfected in HeLa cells, ELISA
Protocol: (§2) To assess the activity of all our different chemical modifications in the context of a second open reading frame, we replicated experiments previously conducted using luciferase mRNA, with human G-CSF mRNA. […] The mutant T7 polymerase was obtained commercially (Durascribe® T7 Transcription kit (Cat. No. DS010925) (Epicentre®, Madison, Wis.).
(§3) The modified RNA in Tables 45 and 46 were transfected in vitro in HeLa cells or added to rabbit reticulysates (250 ng of modified mRNA) as indicated. […] In Table 45, “NT” means not tested.

rabbit reticulysates = assay: G-CSF expression in rabbit reticulysates (ELISA); format: biochemical; conditions: 250 ng modified G-CSF mRNA in rabbit reticulysates
Protocol: as §2, §3

[5] = Table 48 non-naturally occurring, ** mutant T7 polymerase
[6] = Table 48 non-naturally occurring
[7] = Table 47 naturally occurring, *** = production seen in cell free translations
[8] = PBMC Donor 1, 0.4 uL Lipofectamine 2000

Sequence of wild-type T7 polymerase (P00573 whole entry): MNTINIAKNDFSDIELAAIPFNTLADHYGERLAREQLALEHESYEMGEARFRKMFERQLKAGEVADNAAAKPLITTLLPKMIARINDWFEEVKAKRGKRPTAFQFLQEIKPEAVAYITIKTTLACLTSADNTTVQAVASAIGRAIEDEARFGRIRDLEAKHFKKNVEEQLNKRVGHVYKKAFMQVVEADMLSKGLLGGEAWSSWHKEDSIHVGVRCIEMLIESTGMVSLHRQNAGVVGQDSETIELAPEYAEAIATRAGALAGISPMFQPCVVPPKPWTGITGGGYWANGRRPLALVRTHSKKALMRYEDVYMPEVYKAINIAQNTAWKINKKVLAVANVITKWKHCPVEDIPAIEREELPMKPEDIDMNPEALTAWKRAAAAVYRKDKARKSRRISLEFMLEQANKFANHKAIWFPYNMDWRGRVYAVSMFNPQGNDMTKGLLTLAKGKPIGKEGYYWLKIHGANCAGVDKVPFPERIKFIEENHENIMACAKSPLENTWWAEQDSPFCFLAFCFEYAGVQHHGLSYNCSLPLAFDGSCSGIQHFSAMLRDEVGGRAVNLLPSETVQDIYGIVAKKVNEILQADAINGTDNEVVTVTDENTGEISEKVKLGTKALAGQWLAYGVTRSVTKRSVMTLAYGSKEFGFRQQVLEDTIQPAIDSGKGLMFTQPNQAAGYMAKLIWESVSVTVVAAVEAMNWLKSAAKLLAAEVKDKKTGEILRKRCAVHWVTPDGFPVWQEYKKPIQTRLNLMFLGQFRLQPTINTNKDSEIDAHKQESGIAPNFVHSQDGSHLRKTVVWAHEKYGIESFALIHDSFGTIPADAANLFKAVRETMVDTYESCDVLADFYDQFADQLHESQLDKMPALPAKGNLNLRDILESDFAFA

In the case of 5-Br-Uridine [Compound 5-Br-Uridine], the “IVT (G-CSF), first result” value (wild-type T7 polymerase) is reported as “Pass”, the “IVT (Luc), first result” value (wild-type T7 polymerase) is reported as “Pass” and the “Protein (Luc; HeLa)” value (HeLa cells [1]; [5]) is reported as “+”. The “Cytokines (G-CSF; PBMC)” value [2, 6] was “+ (“+” means greater than 100 pg/ml IFN-alpha)”, the “Protein (G-CSF; PBMC)” value [3, 6] was “+ (“+” means greater than 300 pg/ml G-CSF)” and the “Protein (G-CSF; HeLa)” value (HeLa cells [4]; [6]) was “+”.

With `Cn1cc([C@@H]2O[C@H](CO)[C@@H](O)[C@H]2O)c(=O)[nH]c1=O` [1-methylpseudouridine (m^1Y)] the “IVT (G-CSF)” value (wild-type T7 polymerase) was “Pass”, the “IVT (Luc)” value (wild-type T7 polymerase) was “Pass” and the “Protein (Luc; HeLa)” value (HeLa cells [1]; [7]) was “+”. For the same compound, the “Cytokines (G-CSF; PBMC)” value ([2]; Table 47 naturally occurring) was “− (“−” means less than 100 pg/ml)” and the “Protein (G-CSF; PBMC)” value ([3]; Table 47 naturally occurring) was “++++ (“++++” means greater than 6,000 pg/ml G-CSF)”.

`O=c1ccn([C@@H]2O[C@H](CO)[C@@H](O)[C@H]2O)c(=S)[nH]1` [2-thiouridine (s^2U)] was tested, and the “IVT (G-CSF)” value (wild-type T7 polymerase) was “Pass”, the “IVT (Luc)” value (wild-type T7 polymerase) was “Pass” and the “Protein (Luc; HeLa)” value (HeLa cells [1]; [7]) was “−”. For the same compound, the “Cytokines (G-CSF; PBMC)” value ([2]; Table 47 naturally occurring) was “+ (“+” means greater than 100 pg/ml IFN-alpha)”, the “Protein (G-CSF; PBMC)” value ([3]; Table 47 naturally occurring) was “+ (“+” means greater than 300 pg/ml G-CSF)” and the “Protein (G-CSF; HeLa)” value (HeLa cells [4]; [7]) was “+”.

`O=c1ccn([C@@H]2O[C@H](CO)[C@@H](O)[C@H]2O)c(=S)[nH]1` [2-thiouridine] was tested, and the “G-CSF protein (pg/ml) Rabbit reticulysates cells” value (rabbit reticulysates) was 18,375 pg/ml, the “G-CSF Protein Expression” value [3, 8] was 932 pg/mL and the “G-CSF Protein Expression” value ([3]; PBMC Donor 2) was 1,000 pg/ml. The “G-CSF Protein Expression” value ([3]; PBMC Donor 3) was 600 pg/mL and the “G-CSF protein (pg/ml) HeLa cells” value (HeLa cells [4]) was 417,273 pg/ml.

With `O=c1[nH]c(=S)ccn1[C@@H]1O[C@H](CO)[C@@H](O)[C@H]1O` [4-thiouridine (s^4U)] the “IVT (G-CSF)” value (wild-type T7 polymerase) was “Pass”, the “IVT (Luc)” value (wild-type T7 polymerase) was “Fail” and the “Cytokines (G-CSF; PBMC)” value ([2]; Table 47 naturally occurring) was “++ (“++” means greater than 300 pg/ml IFN-alpha)”. For the same compound, the “Protein (G-CSF; PBMC)” value ([3]; Table 47 naturally occurring) was “+/− (“+/−” means 150-300 pg/ml G-CSF)” and the “Protein (G-CSF; HeLa)” value (HeLa cells [4]; [7]) was “+”.

`O=c1[nH]c(=S)ccn1[C@@H]1O[C@H](CO)[C@@H](O)[C@H]1O` [4-thiouridine] was tested, and the “G-CSF protein (pg/ml) Rabbit reticulysates cells” value (rabbit reticulysates) was 52,375 pg/ml, the “G-CSF Protein Expression” value [3, 8] was 5 pg/mL and the “G-CSF Protein Expression” value ([3]; PBMC Donor 2) was 391 pg/mL. The “G-CSF Protein Expression” value ([3]; PBMC Donor 3) was 218 pg/mL and the “G-CSF protein (pg/ml) HeLa cells” value (HeLa cells [4]) was 107,273 pg/ml.

`COC(=O)C=Cc1cn([C@@H]2O[C@H](CO)[C@@H](O)[C@H]2O)c(=O)[nH]c1=O` [5 (2 carbomethoxyvinyl) uridine] was tested, and the “In vitro transcription Yield” value (wild-type T7 polymerase; G-CSF mRNA) was 1.8 mg, the “Capping reaction Yield” value (wild-type T7 polymerase; G-CSF modified mRNA (wild-type T7)) was 1.28 mg and the “In vitro transcription Yield” value (wild-type T7 polymerase; Luciferase mRNA) was 0.89 mg. The “Capping reaction Yield” value (wild-type T7 polymerase; Luciferase modified mRNA (wild-type T7)) was 0.54 mg.

In the case of `COC(=O)C=Cc1cn([C@@H]2O[C@H](CO)[C@@H](O)[C@H]2O)c(=O)[nH]c1=O` [5-(2-carbomethoxyvinyl) Uridine], the “IVT (G-CSF), first result” value (wild-type T7 polymerase) is reported as “Pass”, the “IVT (Luc), first result” value (wild-type T7 polymerase) is reported as “Pass” and the “Protein (Luc; HeLa)” value (HeLa cells [1]; [5]) is reported as “−”. The “Cytokines (G-CSF; PBMC)” value [2, 6] was “− (“−” means less than 100 pg/ml)”, the “Protein (G-CSF; PBMC)” value [3, 6] was “+/− (“+/−” means 150-300 pg/ml G-CSF)” and the “Protein (G-CSF; HeLa)” value (HeLa cells [4]; [6]) was “−”.

In the case of `COC(=O)C=Cc1cn([C@@H]2O[C@H](CO)[C@@H](O)[C@H]2O)c(=O)[nH]c1=O` [5-(2carbomethoxyvinyl) uridine], the “G-CSF protein (pg/ml) Rabbit reticulysates cells” value (rabbit reticulysates) is reported as 0 pg/mL and the “G-CSF protein (pg/ml) HeLa cells” value (HeLa cells [4]) is reported as 1,364 pg/ml.

`O=c1[nH]c(=O)n([C@@H]2O[C@H](CO)[C@@H](O)[C@H]2O)cc1Br` [5-Bromo-uridine] was tested, and the “G-CSF protein (pg/ml) Rabbit reticulysates cells” value (rabbit reticulysates) was 72,000 pg/ml and the “G-CSF protein (pg/ml) HeLa cells” value (HeLa cells [4]) was 186,591 pg/ml.
